Measurements as given in patent publication US20090239839A1, “RECEPTOR ANTAGONIST” (TAKEDA PHARMACEUTICAL COMPANY LIMITED, priority 2003, published 2009).
Counter-ions that a name gives are not always drawn.

Tests used:
human-type OT7T022 [1] = biological target: T1, human-type OT7T022 (Homo sapiens, UniProt Q9GZQ6); assay: Binding inhibiting activity using human-type OT7T022-expressing CHO cell; conditions: 125I-labeled Y-RFRP-3 100 pM, membrane fraction, room temperature 1.5 hours; read-out: IC50 value (binding inhibiting rate)
T1 construct: expressed in transfected cells; host or cells: CHO cells (membrane fraction)
Procedure: Assessment of Binding Inhibiting Activity of Test Compound Using Human-Type OT7T022-Expressing CHO Cell
Twenty μm of a peptide (Y-RFRP-3) (sequence: Tyr-Val-Pro-Asn-Leu-Pro-Gln-Arg-Phe-amide) (0.1 mM) in which a Tyr residue had been added to a N-terminus of hRFRP-3-8 (sequence: Val-Pro-Asn-Leu-Pro-Gln-Arg-Phe-amide) having binding inhibiting activity equivalent to that of endogenous human-type RFRP-3 (hRFRP-3-28) for human-type OT7T022-expressing CHO cell and 10 μl of distilled water were mixed, 20 μl of a lactoperoxidase solution (Sigma, prepared using 0.1 M HEPES-NaOH, pH 7.0 in 10 μg/mL), 10 μl of Iodine-125 (Amersham, IMS-30, 74 MBq), and 20 μl of 0.005% hydrogen peroxide (Wako Pure Chemical Industries, Ltd.) were successively mixed therein, the mixture was allowed to stand at room temperature for 10 minutes, 600 μl of 0.1% TFA-water was added, this was separated by reverse phase HPLC, a peak of the labeled form was collected, an equivalent amount of a buffer for a binding test (50 mM TrisHCl (pH 7.5), 0.1% BSA, 5 mM EDTA, 0.5 mM PMSF, 20 μg/mL leupeptin, 0.1 μg/mL pepstatin A, […]) was added, and this was immediately stored on ice. A part thereof was 1/100 diluted, radioactivity was measured with a γ-counter, and the remaining authentic product was distributed, which was stored at −30° C.
To a 96-well microplate were added 1 μg of a membrane fraction, a compound and Y-RFRP-3 labeled with ^125I, which had been diluted with a reaction buffer (50 mM Tris-HCl, 5 mM EDTA, 0.1% BSA, 0.5 mM PMSF, 20 μg/ml leupeptin, 0.1 μg/ml pepstatin A, 4 μg/ml E-64, 10 mM MgCl2, pH 7.5), to 100 pM to react them at room temperature for 1.5 hours. For measuring non-specific binding, non-labeled Y-RFRP-3 was further added to […]. Then, a membrane fraction was transferred to a unifilter GF/C (Perkin Elmer) by filtering the reaction mixture using a cell harvester (Perkin Elmer), and this was washed with a cooled 50 mM Tris buffer (pH 7.5) five times. The filter was dried, Microsinti (Packard) was added to the filter, and radioactivity was measured with Topcount (Packard).
A binding inhibiting rate (IC50 value) of a test compound is shown in [Table 1].

human-type OT7T022 [2] = biological target: T1, human-type OT7T022; assay: Antagonist activity in cAMP production inhibiting test system using human-type OT7T022-expressing CHO cell; type: cell-based; conditions: agonist human-type RFRP-3-8 20 nM + forskolin 2 μM, intracellular cAMP amount
Procedure: Test of Antagonist Activity of Compound in Camp Production Inhibiting Test System Using Human-Type OT7T022-Expressing CHO Cell
Antagonist activity of a test compound was measured in an intracellular cAMP production inhibiting test system of a CHO cell expressing human-type OT7T022. In the cAMP production inhibiting test, as an assay buffer, a Hanks' balanced salt solution (Gibco) to which 20 mM HEPES pH 7.4, 0.1% bovine serum albumin, and 0.2 mM 3-isobutyl-1-methylxanthine (Sigma) had been added, was used. A sample compound was adjusted with an assay buffer so that the final concentration became 10^−5M, 10^−6M, 10^−7M, 10^−8M, or 10^−10M. An agonist: human-type RFRP-3-8 (Val-Pro-Asn-Leu-Pro-Gln-Arg-Phe-amide) was diluted with an assay buffer obtained by adding 4 μM (final concentration 2 μM) forscoline to 40 nM (final concentration 20 nM). A human-type OT7T022-expressing CHO cell was passaged on a 96-well plate at 4×10^4/well, and cultured at 37° C., 5% CO2 and 95% air for one day. The plate which had been cultured for one day was washed with an assay buffer (150 μl) two times and, after 30 minutes, this was cultured for 30 minutes at 37° C. and 100% air. […] An intracellular cAMP amount was measured according to a protocol of the present kit using cAMP-Screen™ system (ABI). […]

rat-type OT7T022 = biological target: T2, rat-type OT7T022 (Rattus norvegicus, UniProt Q9EP86); assay: Binding inhibiting activity using rat-type OT7T022-expressing CHO cell membrane fraction; conditions: iodine-labeled Y-RFRP-3 100 pM, membrane fraction 0.75 μg/well
T2 construct: expressed in transfected cells; host or cells: CHO cells (membrane fraction)
Procedure: Assessment of Binding Inhibiting Activity of Test Compound Using Rat-Type OT7T022-Expressing CHO Cell
A flask in which a rat-type OT7T022-expressing CHO cell had been cultured was washed with 5 mM EDTA/PBS, cells were peeled with 5 mM EDTA/PBS, and cells were recovered by centrifugation, suspended in 25 mL of a buffer for preparing a membrane fraction (50 mM Tris-HCl, pH 7.5, 5 mM EDTA, 0.5 mM PMSF (manufactured by Wako Pure Chemical Industries, Ltd.), […] (manufactured by Peptide Laboratory), 0.1 μg/mL pepstatin A (manufactured by Peptide Laboratory), 4 μg/mL E-64 (manufactured by Peptide Laboratory)), and homogenized on an ice using Polytron (12,000 rpm, 15 seconds×3 times). This was centrifuged in a high speed cooling centrifuge at 4° C. and 1,000 g for 10 minutes, and the supernatant was recovered. 25 mL of a buffer for preparing a membrane fraction was added to precipitates, and the supernatant was recovered by the same procedure. These supernatants were combined, subjected to a cell strainer, dispensed into tubes for a supercentrifuge, and centrifuged at 4° C. and 100,000 g for 1 hour. The pellet was suspended in a small amount of a buffer for preparing a membrane fraction, this was suspended using a Teflon (registered trade mark) homogenizer, a protein amount was measured using a part, and the remaining was dispensed, and stored at −80° C.
Using an assay buffer (50 mM Tris-HCl, pH 7.5, 5 mM EDTA, 0.5 mM PMSF, 20 μg/mL leupeptin, 0.1 μg/mL pepstatin A, 4 μg/mL E-64, 0.1% bovine serum albumin, 10 mM MgCl2), a membrane fraction of a rat-type OT7T022-expressing CHO cell was diluted to the final concentration of 0.75 μg/well, and iodine-labeled Y-RFRP-3 was diluted to the final concentration of 100 pM. Regarding a sample compound, a 10^−2M or 10^−3M stock solution was diluted with an assay buffer so that the final concentration became 10^−5M, 10^−6M, 10^−7M, 10^−8M, 10^−9M, 10^−10M or 10^−11M. For non-specific binding, hRFRP-3-8 having the final concentration of 10^−5M was prepared. Using a polypropylene 96-well plate, a prepared sample solution, a non-specific binding solution, and 50 μl of an assay buffer for total binding were dispensed, 25 μl of an iodine-labeled form diluent was added, the mixture was stirred, 25 μl of a rat-type OT7T022-expressing CHO cell membrane fraction solution was dispensed, and this was stirred, and incubated at room temperature for 1.5 hours. This was transferred to a unifilter (Perkin Elmer) pre-wetted with a washing buffer (50 mM Tris-HCl, pH 7.5) using a harvester for a 96-well plate (Packard), and this was washed with a washing buffer six times, and sufficiently dried. 50 μl of Microscinti O (Packard) was dispensed, radioactivity was measured with Top Count (Packard), and data were analyzed in a triplicate manner. Binding inhibiting activity (IC50 value) of a test compound for rat-type OT7T022 is shown in [Table 3].

Measured: IC50

T1 sequence (Q9GZQ6 whole entry): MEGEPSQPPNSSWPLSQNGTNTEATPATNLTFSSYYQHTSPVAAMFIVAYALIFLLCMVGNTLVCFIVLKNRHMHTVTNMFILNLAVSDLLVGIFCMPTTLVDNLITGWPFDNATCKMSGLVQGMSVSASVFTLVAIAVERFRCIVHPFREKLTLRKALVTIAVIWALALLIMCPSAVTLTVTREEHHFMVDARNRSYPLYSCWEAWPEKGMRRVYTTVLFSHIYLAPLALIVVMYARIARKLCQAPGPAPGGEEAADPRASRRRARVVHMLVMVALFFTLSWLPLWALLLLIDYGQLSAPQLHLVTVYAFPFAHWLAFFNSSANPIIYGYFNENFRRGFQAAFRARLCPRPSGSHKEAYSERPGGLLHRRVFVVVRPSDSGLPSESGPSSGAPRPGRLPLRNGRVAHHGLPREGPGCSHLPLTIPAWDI
T2 sequence (Q9EP86 whole entry): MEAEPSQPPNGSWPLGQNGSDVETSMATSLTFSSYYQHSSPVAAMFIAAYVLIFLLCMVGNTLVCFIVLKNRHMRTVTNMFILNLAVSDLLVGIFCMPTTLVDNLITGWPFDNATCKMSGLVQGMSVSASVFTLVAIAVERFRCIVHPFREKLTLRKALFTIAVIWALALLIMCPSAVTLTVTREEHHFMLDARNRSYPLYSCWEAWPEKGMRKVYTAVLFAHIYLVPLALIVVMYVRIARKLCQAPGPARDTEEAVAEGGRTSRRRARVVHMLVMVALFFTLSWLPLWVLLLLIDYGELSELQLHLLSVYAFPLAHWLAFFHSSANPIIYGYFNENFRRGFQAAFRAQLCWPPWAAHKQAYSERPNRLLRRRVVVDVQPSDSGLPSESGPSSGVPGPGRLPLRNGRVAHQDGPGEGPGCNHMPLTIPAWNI

COc1c(OCCCNCCCc2ccccc2)cccc1[C@H]1O[C@H](CC(=O)NCc2ccccc2F)C(=O)N(CC(C)(C)C)c2ccc(Cl)cc21 (relative stereo) [Example 3, 2-(3,5-trans-7-Chloro-1-(2,2-dimethylpropyl)-5-{2-methoxy-3-[3-(3-phenylpropylamino)propoxy]phenyl}-2-oxo-1,2,3,5-tetrahydro-4,1-benzoxazepin-3-yl)-N-(2-fluorobenzyl)acetamide hydrochloride]
< 1000 nM: all assays above
